Patent publication US8765748B2, “Indazolyl, benzimidazolyl, benzotriazolyl substituted indolinone derivatives as kinase inhibitors useful in the treatment of cancer” (University Health Network, priority 2007, dated 2014)
Where two headings read alike, the source gives them in different places.

Legend:
Assay type in all cases: biochemical
[1] = target: T1, Aurora A (Homo sapiens, UniProt O14965); experiment: Aurora A Inhibition Assay (Z-Lyte); details: for IC50: 20 μM ATP, 12 nM Aurora A, read-out: Aurora A IC50 Ranges; for inhibition at 10 µM: 10 μM compound, read-out: Aurora A relative inhibition percentage at a dose of 10 μM
T1 construct: purchased Invitrogen PV3612
T1 sequence (O14965 1-403): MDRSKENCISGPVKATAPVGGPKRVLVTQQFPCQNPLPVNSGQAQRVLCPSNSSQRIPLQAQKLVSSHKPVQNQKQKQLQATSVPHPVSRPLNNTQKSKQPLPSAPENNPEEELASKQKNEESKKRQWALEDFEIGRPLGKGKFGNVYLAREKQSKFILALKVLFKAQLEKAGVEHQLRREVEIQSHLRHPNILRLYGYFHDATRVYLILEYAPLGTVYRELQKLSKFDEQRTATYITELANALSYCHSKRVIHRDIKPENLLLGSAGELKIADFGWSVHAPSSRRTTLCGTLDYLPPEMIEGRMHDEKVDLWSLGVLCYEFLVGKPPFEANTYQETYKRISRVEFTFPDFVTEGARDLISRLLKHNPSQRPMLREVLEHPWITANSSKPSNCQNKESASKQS
Protocol: (§1) Aurora A inhibition was determined using the Z-Lyte assay kit from Invitrogen. The assay was performed using the recommended manufacturer's instructions with 20 μM ATP and 12 nM Aurora A (Invitrogen cat #PV3612). The % inhibition values were determined according to the manufacturer's directions and IC50 values were obtained using a non-linear 4 point logistic curve fit (XLfit4, IDBS)

[2] = target: T2, human PLK4 (Homo sapiens, UniProt O00444); experiment: PLK4 Inhibition Assay (indirect ELISA)
T2 construct: amino terminal GST fusion of residues 1-391 of human PLK4; made in house; host or cells: E. coli
T2 sequence (O00444 1-391): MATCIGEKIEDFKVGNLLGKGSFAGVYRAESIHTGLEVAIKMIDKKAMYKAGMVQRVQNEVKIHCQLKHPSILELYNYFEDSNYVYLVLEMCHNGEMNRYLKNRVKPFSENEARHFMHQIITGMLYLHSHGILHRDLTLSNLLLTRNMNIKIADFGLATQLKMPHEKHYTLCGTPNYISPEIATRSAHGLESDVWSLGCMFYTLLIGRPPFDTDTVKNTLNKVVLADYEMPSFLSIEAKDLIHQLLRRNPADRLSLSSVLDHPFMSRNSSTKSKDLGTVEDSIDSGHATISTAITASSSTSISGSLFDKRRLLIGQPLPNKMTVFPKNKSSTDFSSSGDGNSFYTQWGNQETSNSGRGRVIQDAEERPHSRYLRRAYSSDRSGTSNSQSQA
In short: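 Dephosphorylated (lambda phosphatase) GST-PLK4 activity read by indirect ELISA. Compounds were pre-incubated with enzyme for 15 minutes before ATP was added. IC50 came from a non-linear 4-point logistic fit.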

[3] = target: T3, PLK2 (Homo sapiens, UniProt Q9NYY3); experiment: PLK2 Inhibition Assay (Z-Lyte); details: for inhibition at 10 µM: 10 μM compound, read-out: PLK2 relative inhibition percentage at a dose of 10 μM; for IC50: 60 μM ATP, 133 nM PLK2, read-out: PLK2 IC50 Ranges
T3 construct: purchased Invitrogen PV4204
T3 sequence (Q9NYY3 whole entry): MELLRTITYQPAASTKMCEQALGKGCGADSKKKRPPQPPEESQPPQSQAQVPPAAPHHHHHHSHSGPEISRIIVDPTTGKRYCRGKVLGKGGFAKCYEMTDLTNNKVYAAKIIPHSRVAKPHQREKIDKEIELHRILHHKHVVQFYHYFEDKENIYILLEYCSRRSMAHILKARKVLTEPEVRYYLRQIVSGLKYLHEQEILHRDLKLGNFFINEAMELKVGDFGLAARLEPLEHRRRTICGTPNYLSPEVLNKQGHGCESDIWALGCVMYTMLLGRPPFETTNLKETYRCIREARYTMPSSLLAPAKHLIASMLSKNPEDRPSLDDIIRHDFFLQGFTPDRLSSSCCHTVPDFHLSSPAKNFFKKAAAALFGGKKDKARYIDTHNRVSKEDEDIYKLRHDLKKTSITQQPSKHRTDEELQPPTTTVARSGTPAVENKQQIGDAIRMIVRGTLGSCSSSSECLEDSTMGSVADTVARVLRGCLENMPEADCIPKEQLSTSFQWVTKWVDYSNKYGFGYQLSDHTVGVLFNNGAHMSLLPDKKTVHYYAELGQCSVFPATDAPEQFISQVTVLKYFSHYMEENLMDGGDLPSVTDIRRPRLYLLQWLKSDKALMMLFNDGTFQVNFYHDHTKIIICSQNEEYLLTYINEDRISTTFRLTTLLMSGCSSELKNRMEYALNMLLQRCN
Protocol: as §1, with “PLK2” for “Aurora A”, “Invitrogen (cat #PV3802).” for “Invitrogen.”, “60” for “20”, “133” for “12”, “#PV4204).” for “#PV3612).”

[4] = target: T4, PLK1 (Homo sapiens, UniProt P53350); experiment: PLK1 Inhibition Assay (Z-Lyte); details: for inhibition at 10 µM: 10 μM compound, read-out: PLK1 relative inhibition percentage at a dose of 10 μM; for IC50: 25 μM ATP, 8 nM PLK1, read-out: PLK1 IC50 Ranges
T4 construct: purchased Invitrogen PV3501
T4 sequence (P53350 whole entry): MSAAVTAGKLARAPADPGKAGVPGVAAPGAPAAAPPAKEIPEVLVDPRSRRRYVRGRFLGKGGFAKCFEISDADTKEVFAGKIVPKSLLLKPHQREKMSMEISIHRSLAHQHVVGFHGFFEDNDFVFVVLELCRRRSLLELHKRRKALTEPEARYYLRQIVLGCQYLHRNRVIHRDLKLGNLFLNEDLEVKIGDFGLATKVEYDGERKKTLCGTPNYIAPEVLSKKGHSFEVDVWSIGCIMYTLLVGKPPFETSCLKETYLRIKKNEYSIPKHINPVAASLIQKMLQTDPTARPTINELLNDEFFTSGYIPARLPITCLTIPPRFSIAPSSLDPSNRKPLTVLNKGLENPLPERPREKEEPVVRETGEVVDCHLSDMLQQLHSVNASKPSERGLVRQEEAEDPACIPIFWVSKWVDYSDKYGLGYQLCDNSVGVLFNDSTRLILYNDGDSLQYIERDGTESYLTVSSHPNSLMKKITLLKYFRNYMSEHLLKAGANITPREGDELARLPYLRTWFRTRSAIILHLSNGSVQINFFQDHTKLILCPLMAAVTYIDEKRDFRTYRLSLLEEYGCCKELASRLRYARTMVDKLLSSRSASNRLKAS
Protocol: PLK1 inhibition was determined using the Z-Lyte assay kit from Invitrogen (cat #PV3802). […] The % inhibition values were determined according to the manufacturer's directions and IC50 values were obtained using a non-linear 4 point logistic curve fit (XLfit4, IDBS)

[5] = target: T5, Aurora B (Homo sapiens, UniProt Q96GD4); experiment: Aurora B Inhibition Assay (Z-Lyte); details: for IC50: 128 μM ATP, 28 nM Aurora B, read-out: Aurora B IC50 Ranges
T5 construct: purchased Invitrogen PV3970
T5 sequence (Q96GD4 whole entry): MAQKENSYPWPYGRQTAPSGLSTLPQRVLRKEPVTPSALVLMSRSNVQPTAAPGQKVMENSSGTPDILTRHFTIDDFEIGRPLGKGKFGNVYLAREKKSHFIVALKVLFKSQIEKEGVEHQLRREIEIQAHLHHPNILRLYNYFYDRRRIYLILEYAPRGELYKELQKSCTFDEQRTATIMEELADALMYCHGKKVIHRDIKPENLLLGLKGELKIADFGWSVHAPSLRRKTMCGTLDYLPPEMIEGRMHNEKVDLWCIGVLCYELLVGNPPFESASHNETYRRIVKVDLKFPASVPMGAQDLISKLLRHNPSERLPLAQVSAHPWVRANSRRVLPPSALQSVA
Protocol: as §1, with “Aurora B” for “Aurora A”, “with 128” for “with 20”, “and 28” for “and 12”, “cat #PV3970).” for “cat #PV3612).”

[6] = 15 μM ATP, 4 nM GST-PLK4, read-out: PLK4 IC50 Ranges

| SMILES | IC50 [1] [µM] | IC50 [2, 6] [µM] | inhibition at 10 µM [3] [%] | inhibition at 10 µM [4] [%] | IC50 [5] [µM] | IC50 [4] [µM] | inhibition at 10 µM [1] [%] | IC50 [2] [µM] | IC50 [3] [µM] | inhibition at 10 µM ([5]; 10 μM compound, read-out: Aurora B relative inhibition percentage at a dose of 10 μM) [%] |
| --- | --- | --- | --- | --- | --- | --- | --- | --- | --- | --- |
| CCOC(=O)/C=C/c1n[nH]c2cc(C=C3C(=O)Nc4ncccc43)ccc12 (mixture of isomers) [Example A110, (E and Z)-ethyl 3-(6-((E)-(2-oxo-1H-pyrrolo[2,3-b]pyridin-3(2H-ylidene)methyl)-1H-indazol-3-yl)acrylate] | < 5 | < 5 | < 50 | < 50 | < 5 | – | – | – | – | – |
| O=C1Nc2ccccc2C1=Cc1ccc2c(/C=C/c3cnccn3)n[nH]c2c1 (mixture of isomers) [Example A104, (E and Z)-3-((3-((E)-2-(pyrazin-2-yl)vinyl)-1H-indazol-6-yl)methylene)-indolin-2-one] | < 5 | < 5 | < 50 | < 50 | < 5 | – | – | – | – | – |
| Cc1ccc2c(c1)/C(=C\c1ccc3c(/C=C/c4ccncc4)n[nH]c3c1)C(=O)N2 [Example A85, (E)-5-methyl-3-((3-((E)-2-(pyridin-4-yl)vinyl)-1H-indazol-6-yl)methylene)indolin-2-one] | < 5 | < 5 | < 50 | < 50 | < 5 | – | – | – | – | – |
| Nc1ccc2c(c1)NC(=O)/C2=C/c1ccc2cn[nH]c2c1 [Example A38, (E)-3-((1H-indazol-6-yl)methylene)-2-oxoindolin-6-aminium 2,2,2-trifluoroacetate] | 5 to 50 | < 5 | < 50 | – | < 5 | 5 to 50 | – | – | – | – |
| O=C1Nc2ncccc2/C1=C\c1ccc2c(/C=C/c3ccccn3)n[nH]c2c1 [Example A72, (E)-3-((3-((E)-2-(pyridin-2-yl)vinyl)-1H-indazol-6-yl)methylene)-1H-pyrrolo[2,3-b]pyridin-2(3H)-one] | – | < 5 | < 50 | < 50 | < 5 | – | > 50 | – | – | – |
| COc1ccc2c(c1)C(=Cc1ccc3c(/C=C/c4cccnc4)n[nH]c3c1)C(=O)N2 (mixture of isomers) [Example A115, (E and Z)-5-methoxy-3-((3-((E)-2-(pyridin-3-yl)vinyl)-1H-indazol-6-yl)methylene)indolin-2-one] | < 5 | < 5 | < 50 | < 50 | < 5 | – | – | – | – | – |
| O=C1Nc2ccc(Br)cc2/C1=C\c1ccc2[nH]nnc2c1 [Example A3, (E)-3-((1H-benzo[d][1,2,3]triazol-5-yl)methylene)-5-bromoindolin-2-one] | – | < 5 | > 50 | – | 5 to 50 | 5 to 50 | < 50 | – | – | – |
| O=C1Nc2ncccc2/C1=C\c1ccc2c(/C=C/c3ccncc3)n[nH]c2c1 [Example A101, (E)-3-((3-((E)-2-(pyridin-4-yl)vinyl)-1H-indazol-6-yl)methylene)-1H-pyrrolo[2,3-b]pyridin-2(3H)-one] | – | < 5 | < 50 | < 50 | < 5 | – | > 50 | – | – | – |
| O=C1Nc2ccccc2C1=Cc1ccc2c(-c3ccc[nH]3)n[nH]c2c1 (mixture of isomers) [Example A89, (E and Z)-3-((3-(1H-pyrrol-2-yl)-1H-indazol-6-yl)methylene)indolin-2-one] | < 5 | < 5 | < 50 | < 50 | < 5 | – | – | – | – | – |
| O=C1Nc2cc(Cl)ccc2/C1=C\c1ccc2cn[nH]c2c1 [Example A36, (E)-3-((1H-indazol-6-yl)methylene)-6-chloroindolin-2-one] | > 50 | < 5 | < 50 | – | < 5 | 5 to 50 | – | – | – | – |
| COc1ccc2c(c1)/C(=C\c1ccc3c(/C=C/c4cc[n+]([O-])cc4)n[nH]c3c1)C(=O)N2 [Example A117, 4-((E)-2-(6-((E)-(5-methoxy-2-oxoindolin-3-ylidene)methyl)-1H-indazol-3-yl)vinyl)pyridine 1-oxide] | < 5 | – | < 50 | < 50 | < 5 | – | – | < 5 | – | – |
| COc1ccc2c(c1)/C(=C\c1ccc3c(/C=C/c4ccncc4)n[nH]c3c1)C(=O)N2 [Example A86, (E)-5-methoxy-3-((3-((E)-2-(pyridin-4-yl)vinyl)-1H-indazol-6-yl)methylene)indolin-2-one] | – | < 5 | < 50 | < 50 | < 5 | – | > 50 | – | – | – |
| O=C1Nc2ccccc2C1=Cc1ccc2c(-c3cccnc3)n[nH]c2c1 (mixture of isomers) [Example A93, (E and Z)-3-((3-(pyridin-3-yl)-1H-indazol-6-yl)methylene)indolin-2-one] | < 5 | < 5 | < 50 | < 50 | < 5 | – | – | – | – | – |
| O=C1Nc2ccccc2C1=Cc1ccc2c(CCc3ccncc3)n[nH]c2c1 (mixture of isomers) [Example A64, (E and Z)-3-((3-(2-(pyridin-4-yl)ethyl)-1H-indazol-6-yl)methylene)-indolin-2-one] | – | < 5 | < 50 | < 50 | < 5 | – | > 50 | – | – | – |
| COc1ccc2c(c1)C(=Cc1ccc3cn[nH]c3c1)C(=O)N2 (mixture of isomers) [Example A83, (E and Z)-3-((1H-indazol-6-yl)methylene)-5-methoxyindolin-2-one] | – | < 5 | > 50 | > 50 | < 5 | – | > 50 | – | – | – |
| O=C1Nc2ccc(Br)cc2/C1=C\c1ccc2cn[nH]c2c1 [Example A35, (E)-3-((1H-indazol-6-yl)methylene)-5-bromoindolin-2-one] | – | < 5 | < 50 | – | < 5 | > 50 | < 50 | – | – | – |
| CC(C)(C)OC(=O)Nc1ccc2c(c1)NC(=O)/C2=C/c1ccc2cn[nH]c2c1 [Example A37, (E)-tert-butyl 3-((1H-indazol-6-yl)methylene)-2-oxoindolin-6-ylcarbamate] | – | 5 to 50 | – | – | < 5 | > 50 | < 50 | – | > 50 | – |
| O=C1Nc2ncccc2/C1=C\c1ccc2cn[nH]c2c1 [Example A67, (E)-3-((1H-indazol-6-yl)methylene)-1H-pyrrolo[2,3-b]pyridin-2(3H)-one] | – | < 5 | > 50 | > 50 | – | – | > 50 | – | – | > 50 |
| O=C1Nc2ccc(F)cc2/C1=C\c1ccc2cn[nH]c2c1 [Example A16, (E)-3-((1H-indazol-6-yl)methylene)-5-fluoroindolin-2-one] | < 5 | < 5 | – | – | < 5 | 5 to 50 | – | – | < 5 | – |
